Laboratory results published in BindingDB's records for doi:10.1016/j.ejmech.2020.112602 (Utah State University, 2020).

Assays:
[1] = Inhibition of human Cx26 expressed in Escherichia coli LB2003 cells in medium containing 4 mM K+ and 500 uM IPTG by measuring cell growth after 18 hrs by plate reader
[2] = Inhibition of human Cx43 expressed in Escherichia coli LB2003 cells in medium containing 8 mM K+ and 10 uM IPTG by measuring cell growth after 18 hrs by plate reader

Row | SMILES | IC50 [1] [µM] | IC50 [2] [µM]
1 | NC[C@H]1O[C@H](O[C@H]2[C@H](O)[C@@H](O[C@H]3O[C@H](COc4ccc(Cl)cc4)[C@@H](O)[C@H](N)[C@H]3O)[C@H](N)C[C@@H]2N)[C@H](O)[C@@H](O)[C@@H]1O | 17.2 | 8.9
2 | Cc1ccc(OC[C@H]2O[C@H](O[C@@H]3[C@@H](O)[C@H](O[C@H]4O[C@H](CN)[C@@H](O)[C@H](O)[C@H]4O)[C@@H](N)C[C@H]3N)[C@H](O)[C@@H](N)[C@@H]2O)cc1 | 49.4 | 6.2
3 | N[C@@H]1[C@@H](O)[C@@H](O[C@@H]2[C@@H](O)[C@H](O[C@H]3O[C@H](CNC(=O)c4ccccc4-c4c5ccc(=O)cc-5oc5cc(O)ccc45)[C@@H](O)[C@H](O)[C@H]3O)[C@@H](N)C[C@H]2N)O[C@H](CO)[C@H]1O | 12.7 | 8.9
4 | Cc1ccc(COC[C@H]2O[C@H](O[C@@H]3[C@@H](O)[C@H](O[C@H]4O[C@H](CN)[C@@H](O)[C@H](O)[C@H]4O)[C@@H](N)C[C@H]3N)[C@H](O)[C@@H](N)[C@@H]2OCc2ccc(C)cc2)cc1 | – | 3.1
5 | NC[C@H]1O[C@H](O[C@H]2[C@H](O)[C@@H](O[C@H]3O[C@H](COCc4ccc(Cl)cc4)[C@@H](OCc4ccc(Cl)cc4)[C@H](N)[C@H]3O)[C@H](N)C[C@@H]2N)[C@H](O)[C@@H](O)[C@@H]1O | – | 17.1
6 | NC[C@H]1O[C@H](O[C@H]2[C@H](O)[C@@H](O[C@H]3O[C@H](COCc4cccc(-c5ccccc5)c4)[C@@H](OCc4cccc(-c5ccccc5)c4)[C@H](N)[C@H]3O)[C@H](N)C[C@@H]2N)[C@H](O)[C@@H](O)[C@@H]1O | – | 5.5
7 | CCCCCCCCCCCC(=O)NC[C@H]1O[C@H](O[C@H]2[C@H](O)[C@@H](O[C@H]3O[C@H](CO)[C@@H](O)[C@H](N)[C@H]3O)[C@H](N)C[C@@H]2N)[C@H](O)[C@@H](O)[C@@H]1O | 66.7 | –
8 | NC[C@H]1O[C@H](O[C@H]2[C@H](O)[C@@H](O[C@H]3O[C@H](COCc4ccc(F)cc4)[C@@H](OCc4ccc(F)cc4)[C@H](N)[C@H]3O)[C@H](N)C[C@@H]2N)[C@H](O)[C@@H](O)[C@@H]1O | – | 26.6
9 | COc1ccc(COC[C@H]2O[C@H](O[C@@H]3[C@@H](O)[C@H](O[C@H]4O[C@H](CN)[C@@H](O)[C@H](O)[C@H]4O)[C@@H](N)C[C@H]3N)[C@H](O)[C@@H](N)[C@@H]2OCc2ccc(OC)cc2)cc1 | – | 4.1
10 | NC[C@H]1O[C@H](O[C@H]2[C@H](O)[C@@H](O[C@H]3O[C@H](COc4ccc(-c5nc6ccccc6[nH]5)cc4)[C@@H](O)[C@H](N)[C@H]3O)[C@H](N)C[C@@H]2N)[C@H](O)[C@@H](O)[C@@H]1O | 6 | 17.7
11 | N[C@@H]1[C@@H](O)[C@@H](O[C@@H]2[C@@H](O)[C@H](O[C@H]3O[C@H](CNC(=O)CCCc4cc5ccc6cccc7ccc(c4)c5c67)[C@@H](O)[C@H](O)[C@H]3O)[C@@H](N)C[C@H]2N)O[C@H](CO)[C@H]1O | 18.6 | 8.6
12 | NC[C@H]1O[C@H](O[C@H]2[C@H](O)[C@@H](O[C@H]3O[C@H](COCc4ccc5ccccc5c4)[C@@H](OCc4ccc5ccccc5c4)[C@H](N)[C@H]3O)[C@H](N)C[C@@H]2N)[C@H](O)[C@@H](O)[C@@H]1O | – | 6.2
